Patent publication US20260234144A1 (TAY THERAPEUTICS LIMITED, priority 2023, published 2026)

System: R223X stop codon in the mutated luciferase gene, ADXC8 luciferase reporter cell line
Test: cells
Assay type: cell-based
Conditions: for EC (100% of 200 uM G418 response) / Emax: 24 h; for EC (100% of 200 uM G418 response): read-out: pC100%, negative logarithm of the concentration giving the same response as 200 μM G418; for Emax: read-out: Fold Over Control, maximum fold response relative to 200 μM G418; for pC100%: negative logarithm of the concentration giving the same response as 200 μM G418

Structure (SMILES) | EC (100% of 200 uM G418 response) (ADXC8 cells, 24 hours) [µM] | Emax (ADXC8 cells, 24 hours) [%] | pC100% response (assayed at a concentration of 300 μM, C100% = concentration giving the same response as 200 μM G418) | Fold Over Control (maximum fold response relative to 200 μM G418, ADXC8 cells, 24 hours) | pC100% (ADXC8 cells, 24 hours)
Cc1cc(C)c2c(N)nc(NCCN(C)C)nc2n1 [Example 142, N^2-(2-(dimethylamino)ethyl)-5,7-dimethylpyrido[2,3-d]pyrimidine-2,4-diamine] | 1 to 10 |  |  |  | 
Cc1cc(-c2ccccc2)nc2nc(NCCCN3CCOCC3)nc(N)c12 [Example 120, 5-methyl-N2-(3-morpholinopropyl)-7-phenylpyrido[2,3-d]pyrimidine-2,4-diamine] | 1 to 10 | 100 to 3000 |  |  | 
Cc1cc(C)c2c(N)nc(NCC3CCN(C)C3)nc2n1 (centres unmarked) [Example 170] | 10 to 100 | 100 to 3000 |  |  | 
Nc1nc(N)c2cccnc2n1 [pyrido[2,3-d]pyrimidine-2,4-diamine, reference compound] | > 100 | 0 to 100 | not reached |  | 
CNc1nc(N[C@H]2CNC[C@H]2C)nc2nc(C)cc(C)c12 [Example 380] | 1 to 10 | 100 to 3000 |  |  | 
CC(=O)Nc1ccc(CN2CCC(Nc3nc(N)c4c(C)cc(C)nc4n3)CC2)cc1 [Example 458] | 10 to 100 | 100 to 3000 |  |  | 
CNc1nc(NC2(CO)CCNC2)nc2nc(C)cc(C)c12 (single isomer, unassigned) [Example 441] |  |  |  | ## (Fold over Ctrl > 1 ≤ 30) | ++ (pC100% > 5.0 ≤ 6.0)
CNc1cc(N[C@H]2CN(C)C[C@H]2OC)nc2nc3c(c(C)c12)CCC3 [Example 424] | 0.1 to 1 | 100 to 3000 |  |  | 
Cc1cc(C)c2c(N)nc(NC3CCN(C(C)c4ccccc4)CC3)nc2n1 (single isomer, unassigned) [Example 502] | 0.1 to 1 | 100 to 3000 |  |  | 
Cc1nc2nc(NC3CCN(Cc4cc(F)ccc4O)CC3)nc(N)c2c2c1CCC2 [Example 535] | 0.1 to 1 | 100 to 3000 |  |  | 
Cc1cc(C)c2c(N)nc(NC3CCCNCC3)nc2n1 (centres unmarked) [Example 140, A2-(azepan-4-yl)-5,7-dimethylpyrido[2,3-d]pyrimidine-2,4-diamine] | 1 to 10 | 100 to 3000 |  |  | 
Cc1c2c(nc3nc(NC4CCN(Cc5cccc(S(N)(=O)=O)c5)CC4)nc(N)c13)CCC2 [Example 665] | 1 to 10 | 100 to 3000 |  |  | 
COc1ccc(CN2CCC(Nc3nc(N)c4c(C)cc(C)nc4n3)CC2)cc1 [Example 478] | 0.1 to 1 | 100 to 3000 |  |  | 
Cc1nc2nc(NC3CCN(C)CC3)nc(N)c2cc1-c1cnn(C)c1 [Example 677] | > 100 | 0 to 100 |  |  | 
COCc1ccccc1-c1ccc2c(N)nc(NC3CCN(C)CC3)nc2n1 [Example 58] | 10 to 100 | 100 to 3000 |  |  | 
CN1CCC(Nc2nc(N)c3ccc(Cl)nc3n2)CC1 [Example 23, 7-chloro-N^2-(1-methylpiperidin-4-yl)pyrido[2,3-d]pyrimidine-2,4-diamine] | 10 to 100 | 100 to 3000 |  |  | 
Cc1cc(C)c2c(NCCN(C)C)nc(NC3CCN(C)CC3)nc2n1 [Example 270] | 1 to 10 | 100 to 3000 |  |  | 
Cc1cc(C)c2c(N)nc(NC3CCN(Cc4cccc(CO)c4)CC3)nc2n1 [Example 482] | 10 to 100 | 100 to 3000 |  |  | 
CNS(=O)(=O)c1ccc(CN2CCC(Nc3nc(N)c4c(C)c5c(nc4n3)CCC5)CC2)cc1 [Example 666] | 1 to 10 | 100 to 3000 |  |  | 

Structure (SMILES) | EC (100% of 200 uM G418 response) (ADXC8 cells, 24 hours) [µM] | Emax (ADXC8 cells, 24 hours) [%] | pC100% response (assayed at a concentration of 300 μM, C100% = concentration giving the same response as 200 μM G418) | Fold Over Control (maximum fold response relative to 200 μM G418, ADXC8 cells, 24 hours) | pC100% (ADXC8 cells, 24 hours)
Cc1cc(C)c2c(N)nc(NCCNCC(F)(F)F)nc2n1 [Example 162] | > 31.6 | 0 to 100 |  |  | 
Cc1cc(-c2ccccc2)c2c(N)nc(NC3CCN(C)CC3)nc2n1 [Example 13, 7-methyl-N^2-(1-methylpiperidin-4-yl)-5-phenylpyrido[2,3-d]pyrimidine-2,4-diamine] | > 31.6 | 0 to 100 |  |  | 
Cc1cc(C)c2c(N)nc(NC3CCN(Cc4ccc(F)cc4)CC3)nc2n1 [Example 457] | 0.1 to 1 | 100 to 3000 |  |  | 
Cc1ccccc1-c1ccc2c(N)nc(NC3CCN(C)CC3)nc2n1 [Example 110] | 1 to 10 |  |  |  | 
Cc1cc(C)c2c(N)nc(NCC3CN(C(=O)OC(C)(C)C)C3)nc2n1 [Example 139] | 10 to 100 | 100 to 3000 |  |  | 
CNc1nc(N[C@@H]2C[C@@H]3CC[C@H]2N3C)nc2nc(C)cc(C)c12 [Example 368] | 1 to 10 | 100 to 3000 |  |  | 
CNc1nc(N[C@@H]2CCN(C)C2)nc2nc3c(c(C)c12)CCO3 [Example 514, (R)—N^4,5-dimethyl-N^2-(1-methylpyrrolidin-3-yl)-6,7-dihydrofuro[3′,2′:5,6]pyrido[2,3-d]pyrimidine-2,4-diamine] | 1 to 10 | 100 to 3000 |  |  | 
Cc1c2c(nc3nc(NC4CCN(Cc5cccc(B(O)O)c5)CC4)nc(N)c13)CCC2 [Example 669] | 1 to 10 | 100 to 3000 |  |  | 
CNC(=O)c1cccc(CN2CCC(Nc3nc(N)c4c(C)cc(C)nc4n3)CC2)c1 [Example 477] | 10 to 100 | 100 to 3000 |  |  | 
CNc1nc(NC2CC3CCC2N3)nc2nc(C)cc(C)c12 (centres unmarked) [Example 517, N^2-(-7-azabicyclo[2.2.1]heptan-2-yl)-N^4,5,7-trimethylpyrido[2,3-d]pyrimidine-2,4-diamine] |  | 100 to 3000 |  |  | ++ (pC100% > 5.0 ≤ 6.0)
CNc1nc(NC2C[C@@H]3CCC2N3)nc2nc(C)cc(C)c12 (some centres unmarked) [Example 383] | 1 to 10 |  |  |  | 
Cc1cc(C)c2c(NCCn3ccnc3)nc(NC3CCN(C)CC3)nc2n1 [Example 316] | > 31.6 | 0 to 100 |  |  | 
CNc1nc(N[C@H]2CN[C@@H](COC)C2)nc2nc(C)cc(C)c12 [Example 406] | 1 to 10 |  |  |  | 
Cc1cccc(-c2ccc3c(N)nc(NC4CCN(C)CC4)nc3n2)c1 [Example 49, N^2-(1-methylpiperidin-4-yl)-7-(m-tolyl)pyrido[2,3-d]pyrimidine-2,4-diamine] | 1 to 10 |  |  |  | 
Cc1cc(C)c2c(N)nc(NC3CCN(CC4CC4)CC3)nc2n1 [Example 145] | 1 to 10 | 100 to 3000 |  |  | 
CCNc1nc(N[C@]23C[C@H]2CN(C)C3)nc2nc(C)cc(C)c12 [Example 632] | 0.1 to 1 | 100 to 3000 |  |  | 
Cc1cc(C)c2c(N)nc(N[C@@H]3CCN(C)C3)nc2n1 [Example 14, (R)-5,7-dimethyl-N^2-(1-methylpyrrolidin-3-yl)pyrido[2,3-d]pyrimidine-2,4-diamine] | 1 to 10 | 100 to 3000 |  |  | 
Cc1nc2nc(N[C@@H]3CCNC3)nc(N)c2c2c1CCC2 [Example 295] | 0.1 to 1 |  |  |  | 
CNc1nc(N[C@@H]2CCCN(C)C2)nc2nc(C)cc(C)c12 [Example 385] | 0.1 to 1 |  |  |  | 

Structure (SMILES) | EC (100% of 200 uM G418 response) (ADXC8 cells, 24 hours) [µM] | Emax (ADXC8 cells, 24 hours) [%] | pC100% response (assayed at a concentration of 300 μM, C100% = concentration giving the same response as 200 μM G418) | Fold Over Control (maximum fold response relative to 200 μM G418, ADXC8 cells, 24 hours) | pC100% (ADXC8 cells, 24 hours)
CNc1nc(N[C@@H]2CNC[C@H]2O)nc2nc3c(c(C)c12)CCC3 [Example 546] | 1 to 10 | 100 to 3000 |  |  | 
Cc1cc(C)c2c(N)nc(NC3CCNCC3(C)C)nc2n1 (centres unmarked) [Example 212] | 1 to 10 | 100 to 3000 |  |  | 
CNc1nc(N[C@H]2CNCC[C@@H]2O)nc2nc(C)cc(C)c12 [Example 608] | 1 to 10 |  |  |  | 
CNc1nc(NC2CC3CCC2N3C)nc2nc(C)cc(C)c12 (centres unmarked) [Example 592] | 1 to 10 | 100 to 3000 |  |  | 
Cc1cc(C)c2c(NCc3ccccc3)nc(NC3CCN(C)CC3)nc2n1 [Example 268] | 1 to 10 | 100 to 3000 |  |  | 
CNc1nc(N[C@@H]2CCNC2)nc2nc(C)c(Br)c(C)c12 [Example 331] | 0.1 to 1 | 100 to 3000 |  |  | 
Cc1cc(C)c2c(N)nc(NCC3CCN(C4CC4)C3)nc2n1 (centres unmarked) [Example 157] | 1 to 10 | 100 to 3000 |  |  | 
CN1CCC(Nc2nc(N)c3ccc(-c4ccc(C(=O)O)cc4)nc3n2)CC1 [Example 84] | > 100 | 0 to 100 |  |  | 
Cc1c2c(nc3nc(NC4CCN(Cc5cccc6cc[nH]c56)CC4)nc(N)c13)CCC2 [Example 672] | 0.01 to 0.1 | 100 to 3000 |  |  | 
COCC1CN(CCCNc2nc(N)c3c(C)cc(C)nc3n2)C1 [Example 188] | > 31.6 | 0 to 100 |  |  | 
CNCc1cccc(-c2ccc3c(N)nc(NC4CCN(C)CC4)nc3n2)c1 [Example 109] | 10 to 100 | 100 to 3000 |  |  | 
COc1ccc(CCN2CCC(Nc3nc(N)c4c(C)cc(C)nc4n3)CC2)cc1 [Example 201] | 1 to 10 | 100 to 3000 |  |  | 
Cc1cc(C)c2c(N)nc(NC3CCN(Cc4c(F)cccc4F)CC3)nc2n1 [Example 479] | 1 to 10 | 100 to 3000 |  |  | 
Cc1cc(C)c2c(NC3CCCC3)nc(N[C@@H]3CCNC3)nc2n1 [Example 324] | > 31.6 | 0 to 100 |  |  | 
CNc1nc(N[C@H]2CNC[C@H]2F)nc2nc(C)cc(C)c12 [Example 335] | 1 to 10 | 100 to 3000 |  |  | 
CN1CCC(Nc2nc(N)c3ccc(-c4ccc(C(N)=O)cc4)nc3n2)CC1 [Example 51] | > 100 | 0 to 100 |  |  | 
C#Cc1ccnc2nc(NC3CCN(C)CC3)nc(N)c12 [Example 249, 5-ethynyl-N^2-(1-methylpiperidin-4-yl)pyrido[2,3-d]pyrimidine-2,4-diamine] | 10 to 100 | 100 to 3000 |  |  | 
Cc1ccc(CN2CCC(Nc3nc(N)c4c(C)cc(C)nc4n3)CC2)cc1 [Example 543] | 1 to 10 | 100 to 3000 |  |  | 
CNc1nc(N[C@H]2CN(C3CC3)C[C@H]2F)nc2nc(C)cc(C)c12 [Example 519, N^2-((3S,4R)-1-cyclopropyl-4-fluoropyrrolidin-3-yl)-N^4,5,7-trimethylpyrido[2,3-d]pyrimidine-2,4-diamine] | > 31.6 | 0 to 100 |  |  | 
